Here are results for 13 compounds from BindingDB's records for doi:10.7270/Q2SJ1J25 (Burnham Center For Chemical Genomics, 2010).

Molecules are shown by their SMILES.

The experiment deals with Alkaline phosphatase, placental type (Homo sapiens, UniProt P05187). In words: activation of placental alkaline phosphatase – biochemical, uHTS hits, mouse IAP activator project, dose response (AID 488878).
Sequence of Alkaline phosphatase, placental type (P05187 whole entry, looked up): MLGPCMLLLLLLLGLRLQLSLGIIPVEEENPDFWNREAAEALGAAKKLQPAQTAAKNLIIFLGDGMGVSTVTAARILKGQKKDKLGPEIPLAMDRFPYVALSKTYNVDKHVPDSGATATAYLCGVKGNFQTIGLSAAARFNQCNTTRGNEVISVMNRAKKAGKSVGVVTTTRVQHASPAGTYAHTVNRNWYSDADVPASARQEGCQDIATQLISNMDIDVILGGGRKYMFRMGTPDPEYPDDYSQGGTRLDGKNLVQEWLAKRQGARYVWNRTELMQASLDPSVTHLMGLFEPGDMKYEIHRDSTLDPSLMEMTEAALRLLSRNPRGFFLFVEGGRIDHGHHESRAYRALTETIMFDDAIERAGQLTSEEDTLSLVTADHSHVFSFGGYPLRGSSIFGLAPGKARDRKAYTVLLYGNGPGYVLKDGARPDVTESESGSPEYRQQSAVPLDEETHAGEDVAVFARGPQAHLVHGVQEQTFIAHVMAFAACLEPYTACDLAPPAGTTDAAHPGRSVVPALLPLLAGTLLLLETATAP

One may read the EC50 as the concentration needed to bring the measured effect to its halfway point. A high value points to a less potent agent. With `CS(=O)(=O)c1ccc2c(c1)sc1nc(=O)c(/C=C3/C=CC(=O)C(O)=C3)c(N)n12` [SMR000415838], it took 83.5 µM to reach a half-maximal effect (EC50). Then `Cc1cc(=O)[nH]c(N=NCc2ccc(O)c(O)c2)n1` [MLS001194906], with 65.7 µM. Then `O=C(NN=CC1=CC(=O)C(=O)CC1)NN=CC1=CC(=O)C(=O)CC1` [1,3-bis[[(Z)-(3-hydroxy-4-oxocyclohexa-2,5-dien-1-ylidene)methyl]amino]urea], with 29.6 µM; and `C[C@@H]1O[C@@H](O[C@H]2[C@H](O)[C@@H](O)[C@H](Oc3c(-c4ccc(O)c(O)c4)oc4cc(O)cc(=O)c-4c3O)O[C@@H]2CO)[C@H](O)[C@H](O)[C@H]1O` [quercetin-3-rham(4)-gluc], with 22.6 µM; and `Nc1c(/C=C2/C=CC(=O)C(O)=C2)c(=O)nc2sc(CC(=O)N3CCCC3)nn12` [MLS001139292], with 9.83 µM.

Turning to `O=C1CC(=O)c2c(O)cc(O)c(O)c2C1=O` [4,5,7,8-tetrahydroxy-1,2-naphthoquinone], the EC50 was > 100 µM. Then `C#CCOCCOCCOCCNc1nc(N2CCN(C(=O)CCCCCCCCCCNC(=O)Cn3cc(CCCCCN)nn3)CC2)nc(N2CCN(C(=O)CCCCCCCCCCNC(=O)Cn3cc(C[C@@H](C)O)nn3)CC2)n1` [KG-TG], with > 100 µM; and `CN(CCO)c1ccc(CN=Nc2ccc([N+](=O)[O-])cc2S(=O)(=O)Nc2ccccc2C(=O)O)cc1`, with 26 µM; and `C#CCOCCOCCOCCNc1nc(N2CCN(C(=O)CCCCCCCCCCNC(=O)[C@@H](CCC(=O)O)n3cc(CCCCCN)nn3)CC2)nc(N2CCN(C(=O)CCCCCCCCCCNC(=O)[C@H]([C@@H](C)CC)n3cc(CCCCCN)nn3)CC2)n1` [KI-KE], with > 100 µM. In the case of `Nc1c(/C=C2/C=CC(=O)C(O)=C2)c(=O)nc2sc(CC(=O)N3CCCCC3)nn12` [MLS001139223] it was 23.5 µM. Then `Oc1ccc(CN=Nc2cc(N3CCCC3)nc(N3CCCC3)n2)cc1O` [(4Z)-4-[[2-(2,6-dipyrrolidin-1-ylpyrimidin-4-yl)hydrazinyl]methylidene]-2-hydroxycyclohexa-2,5-dien-1-one], with > 100 µM. For the compound `O=C1C=CC(/C=C/c2nc(O)c([N+](=O)[O-])c(=O)[nH]2)C=C1O` (stereo not drawn) [SMR000524347], the EC50 is > 100 µM. In turn, `O=c1ccc2cc3c([nH]c4ccc(Br)cc43)oc-2c1O` [9-bromo-4-hydroxy-6H-[1]benzopyrano[2,3-b]indol-3-one] had an EC50 of 24.1 µM. This counts as double-digit micromolar.
